Experimental data reported in patent US12721928B1, “Active agent-eluting hemostatic agents for prevention of surgical site infection” (priority 2020, dated 2026).
Like-named read-outs stand apart in the source and are kept apart here.

Tests used:
[1] = FTIR of antibiotic released from hemostatic agents (structural integrity); settings: all released samples
Source text: FTIR spectra were collected on a Nicolet Is10 to ensure structural integrity of antibiotics released from the hemostatic agents. Released samples were scanned in the range between 4000 and 800 cm^−1.

mammalian cells = settings: cited from earlier work
S. aureus = assay: Modified Kirby-Bauer disk diffusion test; assay type: cell-based, Staphylococcus aureus; settings: filter paper on S. aureus coated agar
Procedure: Inhibition of S. Aureus 25293 or E. Coli (Migula) Castellani and Chalmers by antibiotic-eluting hemostatic agents was determined through modified Kirby-Bauer disk diffusion tests and microdilution assays. Throughout all Kirby-Bauer tests, agar plates were formed using tryptic soy agar. The plates were subsequently coated with the appropriate strain within its exponential growth phase at a concentration of 10^8 CFU/mL. Filter papers that had been incubated with the hemostatic agents, gelatin, or pure antibiotic equivalent to 24-hour release concentrations for two hours were then immediately placed upon the plates. Zones of inhibition were measured and photographed following 16-18 hours of incubation at 37° C.

cultured cells = settings: EDC up to 10 mg/mL; cited from earlier work

| Compound | basic chemical stability of released antibiotic [1] | zone of inhibition (ZOI) (S. aureus) | further results |
| --- | --- | --- | --- |
| CC(C)(O/N=C(\C(=O)N[C@@H]1C(=O)N2C(C(=O)[O-])=C(C[n+]3ccccc3)CS[C@H]12)c1csc(N)n1)C(=O)O [ceftazidime] | confirmed |  |  |
| CN[C@H](CC(C)C)C(=O)N[C@H]1C(=O)N[C@@H](CC(N)=O)C(=O)N[C@H]2C(=O)N[C@H]3C(=O)N[C@H](C(=O)N[C@H](C(=O)O)c4cc(O)cc(O)c4-c4cc3ccc4O)[C@H](O)c3ccc(c(Cl)c3)Oc3cc2cc(c3O[C@@H]2O[C@H](CO)[C@@H](O)[C@H](O)[C@H]2O[C@H]2C[C@](C)(N)[C@H](O)[C@H](C)O2)Oc2ccc(cc2Cl)[C@H]1O [vancomycin] | confirmed | clear zone of inhibition | toxicity to mammalian cells (mammalian cells; each component separately): minimally toxic |
| CCN=C=NCCCN(C)C [EDC, 1-ethyl-3-(3-dimethylaminopropyl) carbodiimide] |  |  | cytotoxicity to cultured cells (cultured cells): negligibly cytotoxic |
| gelatin |  |  | toxicity to mammalian cells (mammalian cells): minimally toxic |
| CCCCCCCCCC(=O)N[C@@H](Cc1c[nH]c2ccccc12)C(=O)N[C@H](CC(N)=O)C(=O)N[C@@H](CC(=O)O)C(=O)N[C@@H]1C(=O)NCC(=O)N[C@@H](CCCN)C(=O)N[C@@H](CC(=O)O)C(=O)N[C@H](C)C(=O)N[C@@H](CC(=O)O)C(=O)NCC(=O)N[C@H](CO)C(=O)N[C@@H]([C@H](C)CC(=O)O)C(=O)N[C@@H](CC(=O)c2ccccc2N)C(=O)O[C@@H]1C [daptomycin] |  | clear zone of inhibition |  |
